The text below walks through data of ChEMBL document CHEMBL4421728, “Bach1 Inhibitors in Combination with Nrf2 Activators and Pharmaceutical Compositions Thereof” (2017).

Experiment [1] concerns the target T1, Transcription regulator protein BACH1 (Homo sapiens) (UniProt O14867).
T1 sequence (whole entry): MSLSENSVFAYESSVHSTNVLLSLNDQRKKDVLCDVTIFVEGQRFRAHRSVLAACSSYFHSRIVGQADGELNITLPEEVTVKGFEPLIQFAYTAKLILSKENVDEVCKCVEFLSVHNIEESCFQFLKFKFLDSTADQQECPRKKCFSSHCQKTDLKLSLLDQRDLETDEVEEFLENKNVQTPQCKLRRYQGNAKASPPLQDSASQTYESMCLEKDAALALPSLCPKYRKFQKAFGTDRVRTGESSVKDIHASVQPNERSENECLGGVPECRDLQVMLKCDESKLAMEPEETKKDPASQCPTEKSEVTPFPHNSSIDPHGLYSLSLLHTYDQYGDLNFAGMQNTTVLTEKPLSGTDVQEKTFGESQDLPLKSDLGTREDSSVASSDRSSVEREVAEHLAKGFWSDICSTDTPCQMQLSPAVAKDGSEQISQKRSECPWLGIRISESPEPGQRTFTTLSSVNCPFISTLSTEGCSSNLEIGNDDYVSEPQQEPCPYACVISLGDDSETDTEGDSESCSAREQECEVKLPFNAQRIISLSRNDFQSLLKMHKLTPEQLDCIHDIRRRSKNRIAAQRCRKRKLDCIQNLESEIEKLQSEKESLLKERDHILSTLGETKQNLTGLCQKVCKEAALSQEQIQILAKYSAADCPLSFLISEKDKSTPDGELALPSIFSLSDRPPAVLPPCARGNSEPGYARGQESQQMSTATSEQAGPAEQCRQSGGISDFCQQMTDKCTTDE
The experiment can be described thus: Inhibition of Bach1 in normal human lung fibroblasts assessed as induction of HMOX protein expression at 1.25 uM incubated for 16 to 18 hrs by immunostaining relative to control.

The target in experiment [2] is T1, Transcription regulator protein BACH1 (Homo sapiens). The experiment can be described thus: Inhibition of Bach1 in normal human lung fibroblasts assessed as induction of HMOX protein expression at 2.5 uM incubated for 16 to 18 hrs by immunostaining relative to control.
Experiment [3] has the same target. The experiment can be described thus: Inhibition of Bach1 in normal human lung fibroblasts assessed as induction of HMOX protein expression at 0.312 uM incubated for 16 to 18 hrs in presence of 0.0024 uM Nrf2 activator Bardoxolone methyl by immunostaining relative to control.
The target is the same in experiment [4]. Kind of experiment: Inhibition of Bach1 in normal human lung fibroblasts assessed as induction of HMOX protein expression at 1.25 uM incubated for 16 to 18 hrs in presence of 0.0024 uM Nrf2 activator Bardoxolone methyl by immunostaining relative to control.
For experiment [5] the target is unchanged. The experiment can be described thus: Inhibition of Bach1 in normal human lung fibroblasts assessed as induction of HMOX protein expression at 0.019 uM incubated for 16 to 18 hrs in presence of 0.0048 uM Nrf2 activator Bardoxolone methyl by immunostaining relative to control.
For experiment [6] the target is unchanged. The experiment can be described thus: Inhibition of Bach1 in normal human lung fibroblasts assessed as induction of HMOX protein expression at 0.156 uM incubated for 16 to 18 hrs in presence of 0.0048 uM Nrf2 activator Bardoxolone methyl by immunostaining relative to control.
The target is the same in experiment [7]. Kind of experiment: Inhibition of Bach1 in normal human lung fibroblasts assessed as induction of HMOX protein expression at 0.019 uM incubated for 16 to 18 hrs in presence of 0.0097 uM Nrf2 activator Bardoxolone methyl by immunostaining relative to control.
The target is the same in experiment [8]. The experiment can be described thus: Inhibition of Bach1 in normal human lung fibroblasts assessed as induction of HMOX protein expression at 0.078 uM incubated for 16 to 18 hrs in presence of 0.0097 uM Nrf2 activator Bardoxolone methyl by immunostaining relative to control.
Experiment [9] has the same target. Kind of experiment: Inhibition of Bach1 in normal human lung fibroblasts assessed as induction of HMOX protein expression at 0.156 uM incubated for 16 to 18 hrs in presence of 0.0097 uM Nrf2 activator Bardoxolone methyl by immunostaining relative to control.
For experiment [10] the target is unchanged. The experiment can be described thus: Inhibition of Bach1 in normal human lung fibroblasts assessed as induction of HMOX protein expression at 2.5 uM incubated for 16 to 18 hrs in presence of 0.0097 uM Nrf2 activator Bardoxolone methyl by immunostaining relative to control.
The target is the same in experiment [11]. Kind of experiment: Inhibition of Bach1 in normal human lung fibroblasts assessed as induction of HMOX protein expression at 1.25 uM incubated for 16 to 18 hrs in presence of 0.019 uM Nrf2 activator Bardoxolone methyl by immunostaining relative to control.
Experiment [12] shares this target. The experiment can be described thus: Inhibition of Bach1 in normal human lung fibroblasts assessed as induction of HMOX protein expression at 0.019 uM incubated for 16 to 18 hrs in presence of 0.039 uM Nrf2 activator Bardoxolone methyl by immunostaining relative to control.
Experiment [13] shares this target. The experiment can be described thus: Inhibition of Bach1 in normal human lung fibroblasts assessed as induction of HMOX protein expression at 0.078 uM incubated for 16 to 18 hrs in presence of 0.039 uM Nrf2 activator Bardoxolone methyl by immunostaining relative to control.
For experiment [14] the target is unchanged. Kind of experiment: Inhibition of Bach1 in normal human lung fibroblasts assessed as induction of HMOX protein expression at 0.312 uM incubated for 16 to 18 hrs in presence of 0.039 uM Nrf2 activator Bardoxolone methyl by immunostaining relative to control.
Experiment [15] shares this target. The experiment can be described thus: Inhibition of Bach1 in normal human lung fibroblasts assessed as induction of HMOX protein expression at 0.039 uM incubated for 16 to 18 hrs in presence of 0.078 uM Nrf2 activator Bardoxolone methyl by immunostaining relative to control.
Experiment [16] has the same target. The experiment can be described thus: Inhibition of Bach1 in normal human lung fibroblasts assessed as induction of HMOX protein expression at 0.156 uM incubated for 16 to 18 hrs in presence of 0.078 uM Nrf2 activator Bardoxolone methyl by immunostaining relative to control.
Experiment [17] shares this target. The experiment can be described thus: Inhibition of Bach1 in normal human lung fibroblasts assessed as induction of HMOX protein expression at 0.039 uM incubated for 16 to 18 hrs in presence of 0.156 uM Nrf2 activator Bardoxolone methyl by immunostaining relative to control.
For experiment [18] the target is unchanged. The experiment can be described thus: Inhibition of Bach1 in normal human lung fibroblasts assessed as induction of HMOX protein expression at 0.156 uM incubated for 16 to 18 hrs in presence of 0.156 uM Nrf2 activator Bardoxolone methyl by immunostaining relative to control.
Experiment [19] shares this target. The experiment can be described thus: Inhibition of Bach1 in normal human lung fibroblasts assessed as induction of HMOX protein expression at 0.312 uM incubated for 16 to 18 hrs in presence of 0.156 uM Nrf2 activator Bardoxolone methyl by immunostaining relative to control.
Experiment [20] shares this target. Kind of experiment: Inhibition of Bach1 in normal human lung fibroblasts assessed as induction of HMOX protein expression at 0.625 uM incubated for 16 to 18 hrs in presence of 0.156 uM Nrf2 activator Bardoxolone methyl by immunostaining relative to control.
Experiment [21] has the same target. The experiment can be described thus: Inhibition of Bach1 in normal human lung fibroblasts assessed as induction of HMOX protein expression at 2.5 uM incubated for 16 to 18 hrs in presence of 0.312 uM Nrf2 activator Bardoxolone methyl by immunostaining relative to control.

Regarding `CNC(=O)c1ccc2c(c1)nc(Nc1nc3ccc(OC(F)(F)F)cc3s1)n2C`, the fold change (FC) in experiment [1] was 16.2; in [2], 17.5; in experiment [3], 11.7; in experiment [4] it was 16.1; in [5], 2.88; in [6], 8.04. Also, the fold change (FC) in [7] amounted to 7.14; in experiment [8], 8.43; in experiment [9] it was 12.1; in [10], 19.4; in experiment [11], 15.9; in experiment [12] it was 15.9. For the same compound, the fold change (FC) was 17.8 in [13]; 19.6 in experiment [14]; 18.7 in experiment [15]; 18.4 in experiment [16]; 17.2 in [17]; 18.3 in [18]. In addition, the fold change (FC) in experiment [19] came out at 19.2; in experiment [20], 18.7; in [21], 10.
